# Source: paper PMC4435632, “Phase 1 study of ixazomib, an investigational proteasome inhibitor, in advanced non-hematologic malignancies” (Investigational New Drugs, 2015)
# How the values were obtained:
# [1] = Plasma ixazomib pharmacokinetics (LC/MS/MS, noncompartmental); type: in vivo
# Method: (§1) Blood samples for determination of plasma ixazomib concentrations for pharmacokinetic analysis (3 mL) and for measurement of whole blood 20S proteasome activity (1 mL) were collected at the following timepoints for all patients in the dose-escalation cohort and for the first 12 patients completing cycle 1 while receiving protocol-specified treatment at the MTD: pre-dose (within 1 h) on days 1, 4, 8, and 11 of cycle 1, and on day 1 of cycle 2; and on days 1 and 11, cycle 1, at 5, 15 and 30 min, and 1, 2, 4, 9, 24, 48, 96 (day 11 only), 120 (day 11 only), and 168 (day 11 only) h post-dose. A limited sampling schedule was employed for the remaining patients in the MTD expansion cohorts.
# (§2) Plasma concentrations of ixazomib were measured using a good laboratory practice-validated liquid chromatography/tandem mass spectrometry (LC/MS/MS) assay with a lower limit of quantification of 0.5 ng/mL. Whole blood 20S proteasome activity (expressed as percent proteasome inhibition relative to baseline) was measured using an established fluorogenic assay, which evaluates the chymotrypsin-like activity of the β5 subunit of the 20S proteasome, the primary target of ixazomib. […]
# (§3) All efficacy and safety data were summarized using descriptive statistics. Pharmacokinetic and pharmacodynamic parameters were calculated using noncompartmental methods (WinNonlin software v5.3).
# [2] = biological target: chymotrypsin-like activity of the β5 subunit of the 20S proteasome (Homo sapiens, UniProt P28074); assay: Whole blood 20S proteasome activity, fluorogenic assay; type: in vivo
# Method: as §1, §2, §3
# ATF-3 = ATF-3 IHC staining in pre- and post-dose tumor biopsies; type: in vivo, human; conditions: TPEC, 1.76 mg/m^2; seven evaluable tumor pairs
# Method: This open-label, non-randomized, dose-escalation phase 1 study was conducted at 7 sites in the United States and Canada, with patients enrolled from March 02, 2009 to January 10, 2012. The primary objective of the trial was to determine the safety profile, establish the maximum tolerated dose (MTD), and inform the recommended phase 2 dose of IV ixazomib in patients with non-hematologic malignancies. Secondary objectives were to characterize the pharmacokinetics and pharmacodynamics of IV ixazomib in blood and to evaluate disease response. Drug distribution and target engagement in post-dose tumor samples was measured by determining the increase in ATF-3 levels in post-dose tumor samples compared with pre-dose samples by immunohistochemistry (IHC).
# Tumor biopsies were analyzed for the presence of ixazomib using a quantified LC/MS/MS methodology validated in xenograft models. Expression of ATF-3 was measured in the TPEC using an IHC staining assay developed and validated using preclinical and human primary tumor samples. For this assay, formalin-fixed, paraffin-embedded tumor biopsy samples were obtained pre- and post-treatment (at 4–24 h post-dosing on day 1 or day 4 of cycle 1). […] After staining, whole slides were scanned and analyzed to calculate the percentage ATF-3-positive area for each section using the Genie™ (Aperio® ePathology Solutions) pattern recognition tool. […]
# [3] = Ixazomib in tumor biopsies (LC/MS/MS); type: in vivo, human; conditions: TPEC, 1.76 mg/m^2; 10 evaluable patients
# Method: Tumor biopsies were analyzed for the presence of ixazomib using a quantified LC/MS/MS methodology validated in xenograft models. Expression of ATF-3 was measured in the TPEC using an IHC staining assay developed and validated using preclinical and human primary tumor samples. For this assay, formalin-fixed, paraffin-embedded tumor biopsy samples were obtained pre- and post-treatment (at 4–24 h post-dosing on day 1 or day 4 of cycle 1). Six 5 μm sections from each tumor sample were then cut (10 μm apart) and stained with antibody to ATF-3 (Santa Cruz Biotechnology, Inc., sc-188, lot:K1908) on a Discovery XT autostainer (Ventana Medical Systems, Inc.). After staining, whole slides were scanned and analyzed to calculate the percentage ATF-3-positive area for each section using the Genie™ (Aperio® ePathology Solutions) pattern recognition tool. The ATF-3-positive area was measured within the tumor region using the Positive Pixel Count algorithm, and the percentage ATF-3-positive area/total tumor area was then calculated for each section.
# Approximately 16 patients were planned to be enrolled to the TPEC to estimate ixazomib concentrations in tumors and target engagement as ATF-3 expression levels. […] This value was used to determine the minimum number of sections (n = 6) for pharmacodynamic analysis and the size of the fold change in ATF-3 that could be detected with 80 % power. […]
structure (smiles),measurement,setting,value
CC(C)C[C@H](NC(=O)CNC(=O)c1cc(Cl)ccc1Cl)B(O)O [ixazomib],C0 (extrapolated immediate post-bolus plasma concentration),"[1]; day 1, 2.34 mg/m^2 IV, n = 1, individual value",901 ng/mL
same,t½ (terminal disposition phase half-life),"[1]; day 11, 1.33 mg/m^2 IV, n = 3, geometric mean (% CV)",145 (19) h
same,Decrease of mean plasma concentrations,"[1]; human, in vivo, 8 h",approximately 90%
same,Accumulation of ixazomib,"[1]; human, in vivo, 11 day of cycle 1",approximately 3 fold
same,half-life,"[1]; human, in vivo, iv",3.8 to 7.2 days
same,C0,"[1]; human, in vivo, iv, 0.125 mg/m2, C0 (extrapolated immediate post-bolus plasma concentration)",27.1 ng/mL
same,AUC(0-t),"[1]; human, in vivo, iv, 0.25 mg/m2, AUC0–72",60.9 ng·h/mL
same,C0,"[1]; human, in vivo, iv, 0.25 mg/m2, C0 (extrapolated immediate post-bolus plasma concentration)",69 ng/mL
same,half-life,"[1]; human, in vivo, iv, 1 mg/m2",7.17 days
same,C0,"[1]; human, in vivo, iv, 1 mg/m2, C0 (extrapolated immediate post-bolus plasma concentration)",273 ng/mL
same,C0,"[1]; human, in vivo, iv, 1.33 mg/m2, C0 (extrapolated immediate post-bolus plasma concentration)",390 ng/mL
same,half-life,"[1]; human, in vivo, iv, 1.76 mg/m2",4.58 days
same,C0,"[1]; human, in vivo, iv, 1.76 mg/m2, C0 (extrapolated immediate post-bolus plasma concentration)",556 ng/mL
same,half-life,"[1]; human, in vivo, iv, 2.34 mg/m2",3.78 days
same,C0,"[1]; human, in vivo, iv, 2.34 mg/m2, C0 (extrapolated immediate post-bolus plasma concentration)",869 ng/mL
same,Plasma exposure versus dose,[1]; in vivo,appeared to increase proportionally with increasing ixazomib dose
same,"Time to Emax, whole blood 20S proteasome","[2]; day 1, 0.125 mg/m^2 IV, n = 1",1.0 h
same,"Emax, whole blood 20S proteasome","[2]; day 1, 0.125 mg/m^2 IV, n = 1, individual value",7.7 % inhibition
same,"Time to Emax, whole blood 20S proteasome","[2]; day 1, 0.25 mg/m^2 IV, n = 1",0.10 h
same,"Emax, whole blood 20S proteasome","[2]; day 1, 0.25 mg/m^2 IV, n = 1, individual value",17.9 % inhibition
same,"Time to Emax, whole blood 20S proteasome","[2]; day 1, 0.5 mg/m^2 IV, n = 1",0.25 h
same,"Emax, whole blood 20S proteasome","[2]; day 1, 0.5 mg/m^2 IV, n = 1, individual value",28.2 % inhibition
same,"Emax, whole blood 20S proteasome","[2]; day 1, 1 mg/m^2 IV, n = 7, mean (± SD)",36.9 (±19.4) % inhibition
same,"Time to Emax, whole blood 20S proteasome","[2]; day 1, 1 mg/m^2 IV, n = 7, median (range)",0.10 (0.08–0.10) h
same,"Emax, whole blood 20S proteasome","[2]; day 1, 1.33 mg/m^2 IV, n = 4, mean (± SD)",46.7 (±9.4) % inhibition
same,"Time to Emax, whole blood 20S proteasome","[2]; day 1, 1.33 mg/m^2 IV, n = 4, median (range)",0.25 (0.1–0.25) h
same,"Emax, whole blood 20S proteasome","[2]; day 1, 1.76 mg/m^2 IV, n = 19, mean (± SD)",61.3 (±7.9) % inhibition
same,"Time to Emax, whole blood 20S proteasome","[2]; day 1, 1.76 mg/m^2 IV, n = 19, median (range)",0.10 (0.067–0.267) h
same,"Emax, whole blood 20S proteasome","[2]; day 1, 2.34 mg/m^2 IV, n = 3, mean (± SD)",64.4 (±3.4) % inhibition
same,"Time to Emax, whole blood 20S proteasome","[2]; day 11, 0.125 mg/m^2 IV, n = 1",24.0 h
same,"Emax, whole blood 20S proteasome","[2]; day 11, 0.125 mg/m^2 IV, n = 1, individual value",4.5 % inhibition
same,"Time to Emax, whole blood 20S proteasome","[2]; day 11, 0.25 mg/m^2 IV, n = 1",0.083 h
same,"Emax, whole blood 20S proteasome","[2]; day 11, 0.25 mg/m^2 IV, n = 1, individual value",10.0 % inhibition
same,"Time to Emax, whole blood 20S proteasome","[2]; day 11, 0.5 mg/m^2 IV, n = 1",0.1 h
same,"Emax, whole blood 20S proteasome","[2]; day 11, 0.5 mg/m^2 IV, n = 1, individual value",46.1 % inhibition
same,"Emax, whole blood 20S proteasome","[2]; day 11, 1 mg/m^2 IV, n = 6, mean (± SD)",38.9 (±8.35) % inhibition
same,"Time to Emax, whole blood 20S proteasome","[2]; day 11, 1 mg/m^2 IV, n = 6, median (range)",0.1 (0.0–0.117) h
same,"Emax, whole blood 20S proteasome","[2]; day 11, 1.33 mg/m^2 IV, n = 3, mean (± SD)",54.3 (±4.1) % inhibition
same,"Time to Emax, whole blood 20S proteasome","[2]; day 11, 1.33 mg/m^2 IV, n = 3, median (range)",0.083 (0.083–0.1) h
same,"Emax, whole blood 20S proteasome","[2]; day 11, 1.76 mg/m^2 IV, n = 15, mean (± SD)",62.5 (±7.71) % inhibition
same,"Time to Emax, whole blood 20S proteasome","[2]; day 11, 1.76 mg/m^2 IV, n = 15, median (range)",0.10 (0.083–0.283) h
same,"Emax, whole blood 20S proteasome","[2]; day 11, 2.34 mg/m^2 IV, n = 3, mean (± SD)",72.5 (±4.71) % inhibition
same,"Time to Emax, whole blood 20S proteasome","[2]; day 11, 2.34 mg/m^2 IV, n = 3, median (range)",0.10 (0.083-0.133) h
same,inhibition at 1.76 mg/m2,[2]; read-out: Average maximal inhibition of 20S proteasome activity in whole blood,60%
same,Recovery of 20S proteasome activity to predose levels,"[2]; single-dose administration on day 1, except dose level greater than the MTD",≤ 24 h
same,Paired tumor samples with statistically significant increase in post-dose ATF-3 levels (p <0.05),ATF-3,Six of the seven
same,Ixazomib in post-dose tumor biopsies,[3],present in all 10 post-dose biopsies analyzed
